Results: patent US5223485A, “Anaphylatoxin-receptor ligands” (Abbott Laboratories, priority 1991, dated 1993)
Square brackets hold non-standard residues; d marks the D form. Peptide text beside a SMILES is read from it. * marks the point of attachment. ξ: configuration not given here. NMe2Phe = CN(C)[C@@H](Cc1ccccc1)C(=O)*; NMeF = CN[C@@H](Cc1ccccc1)C(=O)O; Cha = N[C@@H](CC1CCCCC1)C(=O)O; ξTic = O=C(O)C1Cc2ccccc2CN1; NMeA = CN[C@@H](C)C(=O)O; dNMeA = CN[C@H](C)C(=O)O

Target: T1, C5a Receptor (Homo sapiens, UniProt P21730)
T1 construct: 2.5-25 μg/mL of purified PMNL membrane fragments; from tissue; host or cells: polymorphonuclear leukocyte (PMNL) membrane fragments
T1 sequence (P21730 1-350): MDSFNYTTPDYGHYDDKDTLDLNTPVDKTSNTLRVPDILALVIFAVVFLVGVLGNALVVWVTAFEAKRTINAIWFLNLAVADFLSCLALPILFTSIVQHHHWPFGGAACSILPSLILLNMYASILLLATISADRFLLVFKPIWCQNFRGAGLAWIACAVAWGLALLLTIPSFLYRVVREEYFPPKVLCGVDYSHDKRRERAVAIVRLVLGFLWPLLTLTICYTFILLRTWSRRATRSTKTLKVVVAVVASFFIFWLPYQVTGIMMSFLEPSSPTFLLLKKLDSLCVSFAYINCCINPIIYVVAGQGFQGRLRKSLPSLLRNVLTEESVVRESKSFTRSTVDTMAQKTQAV
Assay: Anaphylatoxin receptor binding Ki determination: inhibition of 125I-C5a binding to PMNL membrane fragments
Settings: 0.03-1 nM 125I-C5a, 2.5-25 μg/mL purified PMNL membrane fragments, filtration; read-out: In vitro C5a Receptor Binding Potency Ki
Method: Specific inhibition of C5a binding activity of representative compounds of the present invention was measured using 0.03-1 nM ^125 I-C5a with 2.5-25 μg/mL of purified PMNL membrane fragments (Borregaard, N.; Heiple, J. M.; Simons, E. R.; and Clark, R. A. J. Cell. Biol. 1983, 97, 52-61.). Free and membrane-bound ligand were separated by filtration.

| Compound | Ki |
| --- | --- |
| CC(C)C[C@H](NC(=O)[C@H](CCCNC(=N)N)NC(=O)[C@H](CC1CCCCC1)NC(=O)[C@H](C)NC(=O)[C@H](CCCCN)NC(=O)[C@@H](N)Cc1ccccc1)C(=O)N[C@H](C)C(=O)N[C@@H](CCCNC(=N)N)C(=O)O [Example 432, H-Phenylalanyl-Lysyl-Alanyl-{(2S)-2-Amino-3-cyclohexylpropanoyl}-Arginyl-Leucyl-DAlanyl-Arginyl-OH] (H-FKA[Cha]RL[dA]R-OH) | 30 nM |
| CC(C)C[C@H](NC(=O)CNC(=O)C1Cc2ccccc2CN1C(=O)[C@H](C)NC(=O)[C@H](CCCCN)NC(=O)[C@@H](N)Cc1ccccc1)C(=O)N[C@H](C)C(=O)N[C@@H](CCCNC(=N)N)C(=O)O (some centres unmarked) [Example 445, H-Phenylalanyl-Lysyl-Alanyl-{(3R/S)-1,2,3,4-Tetrahydroisoquinolin-3-carbonyl}-Glycyl-Leucyl-DAlanyl-Arginyl-OH] (H-FKA[ξTic]GL[dA]R-OH) | 260 nM |
| CC(C)C[C@H](NC(=O)CNC(=O)[C@H](CC1CCCCC1)NC(=O)[C@H](C)N(C)C(=O)[C@H](CCCCN)NC(=O)[C@H](Cc1ccccc1)N(C)C)C(=O)N(C)[C@H](C)C(=O)N[C@@H](CCCNC(=N)N)C(=O)O [Example 455, (N,N-di-Methyl)Phenylalanyl-Lysyl-(N-Methyl)Alanyl-{(2S)-2-Amino-3-cyclohexylpropanoyl}-Glycyl-Leucyl-(N-Methyl)DAlanyl-Arginyl-OH] (NMe2Phe-K[NMeA][Cha]GL[dNMeA]R-OH) | 17 nM |
| CN[C@@H](Cc1ccccc1)C(=O)N[C@@H](CCCCN)C(=O)N[C@@H](CCCNC(=N)N)C(=O)N[C@@H](CCSC)C(=O)N[C@@H](CCC(N)=O)C(=O)N[C@@H](CC(C)C)C(=O)NCC(=O)N[C@@H](CCCNC(=N)N)C(=O)O [Example 460, (N-Methyl)Phenylalanyl-Lysyl-Arginyl-Methionyl-Glutaminyl-Leucyl-Glycyl-Arginyl-OH] (H-[NMeF]KRMQLGR-OH) | 21 nM |
| Ac-Histidyl-Lysyl-Aspartyl-{(2S)-2-Amino-3-cyclohexylpropanoyl}-{(2S)-2-Amino-3-cyclohexylpropanoyl}-Leucyl-Pipecolyl(±)-Arginyl-OH [Example 13] | 850 nM |
